# Values joined by “and” are separate entries in the source; they are usually repeats but may differ in a detail not shown here. Equal entries are not always repeated.
# B1: NSP4_(112-140) peptide (rotavirus nonstructural protein 4, aa 112-140) (peptide)
# peptide: MIDKLTTREIEQVELLKRIYDKLTVQTTG
# notes: also called NSP4 (aa 112-140)
# Tests used:
# [1] = Circular dichroism, percent α-helix of single peptides; type: physicochemical; settings: CD, from molar ellipticity at 222 nm, mean ± SD, n = 4; for Percent α-helix, 50% TFE: peptide 15–35 μM in 50% trifluoroethanol; for Percent α-helix, 1 mM SUV: peptide 15–35 μM with 1 mM SUV (55 : 35 : 10, POPC/cholesterol/DOPS); for Percent α-helix, Aqueous Buffer: peptide 15–35 μM, 10 mM potassium phosphate buffer pH 7.4
# [2] = target: T1, NSP4_112-140 (Rotavirus A, UniProt P04512); type: physicochemical
# [3] = cited from earlier work
# [4] = tested on: RV-infected MDCK cells; assay: Treatment of RV-infected MDCK cells with cholesterol-altering drugs, NSP4 transport by immunofluorescence; type: cell-based; settings: RV-infected MDCK cells (MOI 2, 12 hpi), treated in triplicate at recommended effective dose; stained with anti-NSP4_150-175 and anti-rabbit-IgG-FITC; compared to untreated infected cells
# Experimental: MDCK cells were infected with RV at a multiplicity of infection (MOI) of 2 and incubated for 12 hpi. The cells were washed and treated in triplicate with the cholesterol altering drugs, fillipin [40], and nystatin [41] exactly as described. Chlorpromazine and nocodazole were utilized as negative and positive controls, respectively. Cells were fixed with methanol : acetone (1 : 1) at −20°C for 10 min, blocked with 5% dry milk for 20 min, incubated with anti-NSP4_150-175 and anti-rabbit-IgG-FITC, and examined under a UV microscope (Zeiss). The cell surface carefully was observed and the presence or absence of fluorescence carefully noted. Comparisons also were made to untreated cells. Primary and secondary antibody controls were negative. To ensure the lack of drug toxicity, a separate set of cells were treated and then stained with trypan blue.
# [5] = target: T1, NSP4_112-140; type: binding
# [6] = target: T2, Cy3-N-Cav_(19-40) (caveolin-1 aa 19-40, Cy3-labelled) (not fully specified); assay: other fluorescence titration; settings: both partners purified
# T2 construct: also called Cy3-Cav_(19-40); N-caveolin-1_(19-40)
# T2 peptide: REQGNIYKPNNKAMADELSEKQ
Molecule,"Percent α-helix, 50% TFE [1]","Percent α-helix, 1 mM SUV [1] [%]","Percent α-helix, Aqueous Buffer [1] [%]","% helical content, Observed, 1 mM SUV [2] [%]","% helical content, Observed, 50% TFE [2] [%]","% helical content, Observed, Aqueous buffer [2] [%]","% helical content, Theoretical, 1 mM SUV [2] [%]","% helical content, Theoretical, 50% TFE [2] [%]","% helical content, Theoretical, Aqueous buffer [2] [%]",Results: NSP4 transport to the cell surface [4],also measured
"EAVGKIFSNVRINLQKEI [C-Cav161-178, caveolin-1 C-terminal peptide aa 161–178]",57.4 ± 4.4%,42.5 ± 10.6,43.4 ± 3.8,51.9 ± 2.4,44.2 ± 10.6,25.0 ± 1.7,49.5 ± 6.2,67.8 ± 3.2,35.3 ± 1.6,–,–
CC(C)CCC[C@@H](C)[C@H]1CC[C@H]2[C@@H]3CC=C4C[C@@H](O)CC[C@]4(C)[C@H]3CC[C@]12C [cholesterol],–,–,–,–,–,–,–,–,–,–,critical micellar concentration (CMC) [3]: 25 to 40 nM
CCCCC[C@@H](O)[C@H]1C(=O)O[C@H](C)[C@@H](O)/C=C/C=C/C=C/C=C/C=C(\C)[C@@H](O)C[C@H](O)C[C@H](O)C[C@H](O)C[C@H](O)C[C@H](O)C[C@@H]1O [Fillipin],–,–,–,–,–,–,–,–,–,Disrupted NSP4 transport,–
"SGGKYVDSEGHLYTVPIRE [N-Cav2-20, caveolin-1 N-terminal peptide aa 2–20]",16.5 ± 0.9%,18.5 ± 1.9,18.9 ± 2.8,34.7 ± 6.0,46.3 ± 7.2,21.7 ± 0.8,37.7 ± 1.9,47.6 ± 1.8,23.6 ± 2.6,–,fold increase in affinity in presence of SUV over absence of membranes [5]: ~3 fold
CN(C)CCCN1c2ccccc2Sc2ccc(Cl)cc21 [Chlorpromazine],–,–,–,–,–,–,–,–,–,Normal NSP4 transport to the PM.,–
COC(=O)Nc1nc2ccc(C(=O)c3cccs3)cc2[nH]1 [Nocodazole],–,–,–,–,–,–,–,–,–,Disrupted NSP4 transport,–
C[C@@H]1[C@H](O)[C@@H](C)/C=C/C=C/CC/C=C/C=C/C=C/C=C/C(O[C@H]2O[C@H](C)[C@@H](O)[C@H](N)[C@@H]2O)CC2O[C@](O)(CC(O)C(O)CCC(O)CC(O)CC(O)CC(=O)O[C@H]1C)CC(O)C2C(=O)O (stereo partly shown) [Nystatin],–,–,–,–,–,–,–,–,–,Disrupted NSP4 transport,–
"FEDVIAEPEGTHS [Cav68-80, caveolin-1 central region peptide aa 68–80, negative control]",23.1% and 24.4 ± 0.8%,21.4 ± 2.0,23.4 ± 0.9,31.3 ± 0.2,45.9 ± 2.8,24.2 ± 0.3,37.5 ± 1.9,49.8 ± 1.8,23.9 ± 0.7,–,–
B1,–,–,–,–,–,–,–,–,–,–,Kd [6]: 40 nM

# Reference: paper PMC3303745, “Elucidation of the Rotavirus NSP4-Caveolin-1 and -Cholesterol Interactions Using Synthetic Peptides” (Journal of Amino Acids, 2012)
